≈ marks a conversion by molar mass, not a printed value. Where “and” joins values, the source holds several entries; their conditions need not be identical. Identical values can stand only once. Like-named read-outs stand apart in the source and are kept apart here.
Columns and labels:
C. albicans = assay: MIC, CLSI M27-A2; assay type: cell-based, Candida albicans
Procedure: Minimum Inhibitory Concentration (MIC): Minimum inhibitory concentrations of synthetic and semisynthetic and natural products against dermatophytes were determined using a modification of the Clinical Laboratory Standards Institute (CLSI, formerly National Committee of Clinical Laboratory Standards, NCCLS) M38A standard method for dermatophytes, while MIC of these agents against Candida species were determined using the CLSI M27-A2 methodology. The method used to determine the MIC against bacteria was based on the CLSI document M7-A7.
The remaining essential oils were prepared in a dilution range of 0.03-16 μg/ml. For Candida the MIC was read at 24 hours and defined as the lowest concentration to inhibit 50% of fungal growth as compared to the growth control (Table 4).

All Yeasts = assay: Minimum fungicidal concentration, yeasts; assay type: cell-based
Procedure: (§1) Minimum fungicidal concentration (MFC): The minimum fungicidal concentrations of various agents were determined using the technique described by Canton et al. (Antimicrob Agents Chemother. 2004 8:2477-82). In that method, fungal conidia were collected following growth on potato dextrose agar (PDA) plates and were used to inoculate 96-well plates containing different concentrations of agents. Following incubation at 35° C. for 4 days (for dermatophytes) or 24 hours (for yeast), wells showing no visible growth were cultured to determine the MFC (defined as the lowest concentration of a given agent that kills>99.999% of fungal conidia or spores). The MFC value represents the level of the agent at which spores or conidia were killed.

All dermatophytes = assay: Minimum fungicidal concentration, pooled dermatophytes; assay type: cell-based, E. floccosum, T. rubrum, T. mentagrophytes
Procedure: as §1
In the following Tables, MIC50 and MIC90 are defined as the minimal concentrations of a compound that can inhibit 50% and 90% of the tested organisms, respectively.

T. mentagrophytes [1] = assay: Post-treatment leather biopsy disc assay; assay type: cell-based, Trichophyton mentagrophytes
Description: (§2) Based on the above experiments, our disc biopsy assay employed Dr. Scholl's insole and leather discs as the optimal substrates representing materials used in shoes, and 30% isopropanol as the optimal vehicle to dissolve the agents to be tested in pre-treatment and post-treatment studies.
(§3) Two types of disc biopsy assays were used to evaluate the ability of different synthetic and natural substances to disinfect shoe material: (a) Pre-treatment assay: where discs were pre-treated with antifungals first and then infected with T. mentagrophytes, and (b) Post-treatment assay: where discs were first infected with T. mentagrophytes, then treated with drugs. These assays reveal the ability of different agents to prevent and treat shoe fungal contamination, respectively.
(§4) Post-treatment assays: To evaluate the ability of various agents to treat infected shoes, PDA plates were prepared on which […] T. mentagrophytes cells were evenly spread on their surface. Next, untreated biopsy discs were placed on these PDA plates and incubated for 4 days at 30° C. Incubating the biopsy discs in this manner allowed the fungi to invade the discs. Infected discs were picked and post-treated with different agents by spraying. Post-treated discs were allowed to air dry and were then placed on fresh, uninoculated PDA plates and incubated for 4 additional days at 30° C. Incubation of the discs under these conditions allows any fungi that are not killed by the sprayed agent to grow. In other words, agents that are effective in the treatment of shoe material will not show any fungal growth around the disc biopsy (FIG. 1C). In contrast, discs treated with ineffective agents will show fungal growth emanating from them (FIG. 1D). Diameter of the growth zone (GZD) was determined as a measure of the activity of the agent tested.

T. mentagrophytes [2] = assay: Post-treatment insole biopsy disc assay; assay type: cell-based, Trichophyton mentagrophytes
Description: as §2, §3, §4

T. mentagrophytes [3] = assay: Pre-treatment leather biopsy disc assay; assay type: cell-based, Trichophyton mentagrophytes
Description: (§5) Based on the above experiments, our disc biopsy assay employed Dr. Scholl's insole and leather discs as the optimal substrates representing materials used in shoes, and 30% isopropanol as the optimal vehicle to dissolve the agents to be tested in pre-treatment and post-treatment studies. Two types of disc biopsy assays were used to evaluate the ability of different synthetic and natural substances to disinfect shoe material: (a) Pre-treatment assay: where discs were pre-treated with antifungals first and then infected with T. mentagrophytes, and (b) Post-treatment assay: where discs were first infected with T. mentagrophytes, then treated with drugs. These assays reveal the ability of different agents to prevent and treat shoe fungal contamination, respectively. Pre-treatment assays: To evaluate the ability of different agents to prevent fungal contaminations of shoes, PDA plates were prepared on which 10^4 T. mentagrophytes cells were evenly spread. Next, discs from insoles and leather were treated as follows (with either agent or control vehicle): discs were pretreated with a single spray, spraying for 15 second or 30 second. Other discs were immersed in agent or vehicle for 30 min. Following this treatment, discs were air-dried by placing them in a Petri plate for 1 min. These dried discs were then placed (drug side down) on the seeded PDA plates. Plates were then incubated for 4 days at 30° C. Following incubation, fungal growth was recorded. […] Diameter of the clearance zone (CZD) was measured. The relative activity of different agents and control were assessed.

T. mentagrophytes [4] = assay: Scanning electron microscopy of treated discs; assay type: cell-based, Trichophyton mentagrophytes; settings: for SEM: fungal growth on insole, post-contamination treatment / SEM: fungal growth on insole, pretreatment: insole biopsy disc; for SEM: fungal growth on leather, pretreatment: leather biopsy disc
Procedure: Scanning electron microscopy (SEM) was used to monitor the ability of agents to eradicate fungal growth on shoe insoles or leather biopsy discs. Pre- and post-treated discs were processed for SEM by the method of Chandra et al. One set of discs was used as a control in which no drug pre- or post-treatment was performed. In addition, one set of biopsy discs was used as blank where no fungal cells or drug were added. Following treatment, discs were fixed with 2% glutaraldehyde for 2 h, and then washed with sodium cacodylate buffer (three times for 10 minutes each). The discs were then treated with 1% osmium tetraoxide (for 1 h at 4° C.) followed by a series of washing with sodium cacodylate buffer, followed by a two times washing with distilled water. Next, the discs were treated with 1% tannic acid washed three times with distilled water, and followed by 1% uranyl acetate with two water washings. The samples were then dehydrated through a series of ethanol solutions (range from 25% (vol/vol) ethanol in distilled water to absolute ethanol). Prepared samples were then sputter coated with Au/Pd (60/40) and viewed with Amray 1000B scanning electron microscope.

T. mentagrophytes [5] = assay: Pre-treatment insole biopsy disc assay; assay type: cell-based, Trichophyton mentagrophytes
Description: as §5

[6] = C. albicans strain 8280 (multi-resistant)
[7] = Candida albicans, 24 h, C. albicans strain 1740, 50% inhibition, 24 hours, read-out: MIC
[8] = Candida albicans, C. albicans strain 2108, read-out: MIC
[9] = Candida albicans, C. albicans strain 2153, read-out: MIC
[10] = Candida albicans, C. albicans strain 8280 (multi-resistant), read-out: MIC
[11] = Candida albicans, C. albicans strain 8283, read-out: MIC
[12] = Candida albicans, C. albicans strain 8364, read-out: MIC
[13] = Candida albicans, C. albicans, n = 6
[14] = All dermatophytes, n = 18, read-out: MFC, row MIC50
[15] = All dermatophytes, n = 18, read-out: MFC, row MIC90

SMILES	MIC (C. albicans; [6]) [µg/mL]	MIC (C. albicans; [7]) [µg/mL]	MIC (C. albicans; [8]) [µg/mL]	MIC (C. albicans; [9]) [µg/mL]	MIC (C. albicans; [10]) [µg/mL]	MIC (C. albicans; [11]) [µg/mL]	MIC (C. albicans; [12]) [µg/mL]	MIC50 (C. albicans; [13]) [µg/mL]	MIC90 (C. albicans; [13]) [µg/mL]	MFC (All dermatophytes; [14]) [µg/mL]	MFC (All dermatophytes; [15]) [µg/mL]	Leather Post-contamination Treatment (GZD) (T. mentagrophytes [1]; 1% spray in 30% isopropanol) [mm]	Insoles Post-contamination Treatment (GZD, growth zone diameter) (T. mentagrophytes [2]; 1% spray in 30% isopropanol) [mm]	Leather Pretreatment (CZD) (T. mentagrophytes [3]; 1% spray in 30% isopropanol) [mm]	SEM: fungal growth on insole, post-contamination treatment (T. mentagrophytes [4])	SEM: fungal growth on insole, pretreatment (T. mentagrophytes [4])	SEM: fungal growth on leather, pretreatment (T. mentagrophytes [4])	Insoles Pretreatment (CZD, clearance zone diameter) (T. mentagrophytes [5]; 1% spray in 30% isopropanol) [mm]	MFC Range (All dermatophytes; All dermatophytes, n = 18)	other results
Clc1ccc(COC(Cn2ccnc2)c2ccc(Cl)cc2Cl)c(Cl)c1 (stereo not shown) [Miconazole, miconazole]	>16	1 (≈ 2.4 µM)	2 (≈ 4.81 µM)	1 (≈ 2.4 µM)	> 16	16 (≈ 38.4 µM)	2 (≈ 4.81 µM)	2 (≈ 4.81 µM)	16 (≈ 38.4 µM)	8 (≈ 19.2 µM)	> 8									MIC (C. albicans; Candida albicans, C. albicans, another isolate, read-out: MIC): 16 µg/mL (≈ 38.4 µM); MIC (C. albicans; Candida albicans, C. albicans, four isolates, read-out: MIC): 1 to 2 µg/mL (≈ 2.4 to 4.81 µM); MFC Range (All Yeasts): 0.5 to 2 µg/mL; MFC (All dermatophytes; all T. mentagrophytes isolates and the majority of T. rubrum and E. floccosum isolates, read-out: MFC): ≥ 8 µg/mL
CN(C/C=C/C#CC(C)(C)C)Cc1cccc2ccccc12 [Terbinafine, terbinafine]	>64	1 (≈ 3.43 µM)	0.5 (≈ 1.72 µM)	0.5 (≈ 1.72 µM)	≥ 64	0.5 (≈ 1.72 µM)	2 (≈ 6.86 µM)	0.5 (≈ 1.72 µM)	2 (≈ 6.86 µM)	0.06 (≈ 0.206 µM)	0.125 (≈ 0.429 µM)	0	0	85	complete clearance of fungal growth	completely eradicated fungal growth	completely eradicated fungal growth	85	0.03 to 0.125 µg/mL	MIC (C. albicans; Candida albicans, C. albicans, 5 strains, read-out: MIC values): 0.5 to 2 µg/mL (≈ 1.72 to 6.86 µM)
Cc1cccc(N(C)C(=S)Oc2ccc3ccccc3c2)c1 [Tolnaftate, tolnaftate]	>64	> 64	64 (≈ 208 µM)	> 64	> 64	> 64	> 64	> 64	> 64	0.125 (≈ 0.407 µM)	1 (≈ 3.25 µM)	11	8	18	minimally effective	completely eradicated fungal growth	did not completely eradicate dermatophyte growth	25	0.06 to 1.0 µg/mL and 0.06 to 1 µg/mL	Leather Post-contamination Treatment (GZD) (T. mentagrophytes [1]; 2% spray in 30% isopropanol): 11 mm; MIC Range (C. albicans; C. albicans, n = 6): > 64 µg/mL; Insoles Post-contamination Treatment (GZD, growth zone diameter) (T. mentagrophytes [2]; 2% spray in 30% isopropanol): 10 mm; fungal regrowth from established contamination (T. mentagrophytes [2]; 4% (w/v) in acetone, insole disc): no fungal regrowth was observed; Leather Pretreatment (CZD) (T. mentagrophytes [3]; 1% spray in 30% isopropanol, listed as tolnaftate): 16 mm; Leather Pretreatment (CZD) (T. mentagrophytes [3]; 2% spray in 30% isopropanol): 6 mm; Insoles Pretreatment (CZD, clearance zone diameter) (T. mentagrophytes [5]; 2% spray in 30% isopropanol): 10 mm; Insoles Pretreatment (CZD, clearance zone diameter) (T. mentagrophytes [5]; 2% spray in 30% isopropanol, listed as tolnaftate): 11 mm; preventive activity against dermatophytes infecting shoes (T. mentagrophytes [5]; acetone as vehicle): potent preventive activity; MFC Range (All dermatophytes; All dermatophytes, n = 18, listed as tolnaftate): 0.06 to 0.125 µg/mL

From patent US20080220103A1, “METHOD FOR TREATING/CONTROLLING/KILLING FUNGI AND BACTERIA ON LIVING ANIMALS” (priority 2005, published 2008)
